Results published in ChEMBL document CHEMBL3044903, “Synthesis and Herbicidal Activity of Novel 3-Alkoxycarbonyl-3-aryl-2,3-dihydro-2-oxo-1H-pyrrole Derivatives” (J Pestic Sci, 2004).

Assays:
[1] = tested on: Echinochloa oryzicola; assay: Post-emergence herbicide activity against Echinochloa oryzicola under greenhouse condition at 10 g a.i/a treated at one-leaf stage measured after 3 weeks; format: functional
[2] = tested on: Oryza sativa; assay: Phytotoxicity against two-leaf stage Oryza sativa cv. Nipponbare (rice) planted zero cm depth at 1 g a.i/a measured after 3 weeks; format: organism-based; details: in vivo, other, 504 h
[3] = tested on: Echinochloa oryzicola; assay: Pre-emergence herbicide activity against Echinochloa oryzicola under greenhouse condition at 10 g a.i/a measured after 3 weeks; format: functional
[4] = tested on: Schoenoplectiella juncoides; assay: Pre-emergence herbicide activity against Schoenoplectiella juncoides under greenhouse condition at 10 g a.i/a measured after 3 weeks; format: functional
[5] = tested on: Echinochloa oryzicola; assay: Post-emergence herbicide activity against Echinochloa oryzicola under greenhouse condition at 1 g a.i/a treated at one-leaf stage measured after 3 weeks; format: functional
[6] = tested on: Echinochloa oryzicola; assay: Pre-emergence herbicide activity against Echinochloa oryzicola under greenhouse condition at 1 g a.i/a measured after 3 weeks; format: functional
[7] = tested on: Echinochloa oryzicola; assay: Herbicidal activity against Echinochloa oryzicola at 1 g a.i/a treated at 1.5 leaf stage measured after 3 weeks; format: functional
[8] = tested on: Schoenoplectiella juncoides; assay: Pre-emergence herbicide activity against Schoenoplectiella juncoides under greenhouse condition at 1 g a.i/a measured after 3 weeks; format: functional
[9] = tested on: Oryza sativa; assay: Phytotoxicity against two-leaf stage Oryza sativa cv. Nipponbare (rice) planted zero cm depth at 5.0 g a.i/a measured after 3 weeks; format: organism-based; details: in vivo, 504 h
[10] = tested on: Echinochloa oryzicola; assay: Herbicidal activity against Echinochloa oryzicola at 5.0 g a.i/a treated at 1.5 leaf stage measured after 3 weeks; format: functional
[11] = tested on: Oryza sativa; assay: Phytotoxicity against two-leaf stage Oryza sativa cv. Nipponbare (rice) planted zero cm depth at 2.5 g a.i/a measured after 3 weeks; format: organism-based; details: in vivo, other, 504 h
[12] = tested on: Echinochloa oryzicola; assay: Herbicidal activity against Echinochloa oryzicola at 1 g a.i/a treated at 2.5 leaf stage measured after 3 weeks; format: functional
[13] = tested on: Schoenoplectiella juncoides; assay: Post-emergence herbicide activity against Schoenoplectiella juncoides under greenhouse condition at 1 g a.i/a treated at one-leaf stage measured after 3 weeks; format: functional
[14] = tested on: Schoenoplectiella juncoides; assay: Post-emergence herbicide activity against Schoenoplectiella juncoides under greenhouse condition at 10 g a.i/a treated at one-leaf stage measured after 3 weeks; format: functional
[15] = tested on: Echinochloa oryzicola; assay: Herbicidal activity against Echinochloa oryzicola at 5.0 g a.i/a treated at 2.5 leaf stage measured after 3 weeks; format: functional
[16] = tested on: Oryza sativa; assay: Phytotoxicity against two-leaf stage Oryza sativa cv. Nipponbare (rice) planted 2 cm depth at 5.0 g a.i/a measured after 3 weeks; format: organism-based; details: in vivo, 504 h
[17] = tested on: Oryza sativa; assay: Phytotoxicity against two-leaf stage Oryza sativa cv. Nipponbare (rice) planted 2 cm depth at 1 g a.i/a measured after 3 weeks; format: organism-based; details: in vivo, other, 504 h
[18] = tested on: Echinochloa oryzicola; assay: Herbicidal activity against Echinochloa oryzicola at 2.5 g a.i/a treated at 2.5 leaf stage measured after 3 weeks; format: functional
[19] = tested on: Oryza sativa; assay: Phytotoxicity against two-leaf stage Oryza sativa cv. Nipponbare (rice) planted 2 cm depth at 2.5 g a.i/a measured after 3 weeks; format: organism-based; details: in vivo, 504 h
[20] = tested on: Echinochloa oryzicola; assay: Herbicidal activity against Echinochloa oryzicola at 2.5 g a.i/a treated at 1.5 leaf stage measured after 3 weeks; format: functional

COC(=O)C1(c2ccccc2)C(=O)N(C(C)(C)c2cccc(Cl)c2)C=C1C (centres undefined) showed an Activity [1] of 100%, an Activity [2] of 80% and an Activity [3] of 100%. The Activity [4] was 100%, the Activity [5] was 50.1% and the Activity [6] was 100%. For the same compound, the Activity [7] was 99%, the Activity [8] was 50.1% and the Activity [9] was 98%. For the same compound, the Activity [10] was 100%, the Activity [11] was 95% and the Activity [12] was 40%. It also gave an Activity [13] of 87.6%, an Activity [14] of 87.6% and an Activity [15] of 99%. The Activity [16] was 0%, the Activity [17] was 0% and the Activity [18] was 90%. For the same compound, the Activity [19] was 0% and the Activity [20] was 100%.
In the case of CC1=C(c2ccccc2)C(=O)N(C(C)(C)c2cc(Cl)cc(Cl)c2)C1, the Activity [1] is reported as 100%, the Activity [3] is reported as 100% and the Activity [4] is reported as 100%. It also gave an Activity [5] of 87.6%, an Activity [6] of 100% and an Activity [7] of 60%. For the same compound, the Activity [8] was 100%, the Activity [9] was 98% and the Activity [10] was 98%. It also gave an Activity [11] of 90%, an Activity [12] of 40% and an Activity [13] of 75.1%. It also gave an Activity [14] of 87.6%, an Activity [15] of 98% and an Activity [16] of 0%. For the same compound, the Activity [18] was 95%, the Activity [19] was 0% and the Activity [20] was 95%.
Work on CC1=CN(C(C)(C)c2cc(Cl)cc(Cl)c2)C(=O)C1(C(=O)OCc1ccccc1)c1ccccc1 (centres undefined) yielded an Activity [1] of 100%, an Activity [3] of 100% and an Activity [4] of 0%. It also gave an Activity [5] of 50.1%, an Activity [6] of 0% and an Activity [8] of 0%. It also gave an Activity [13] of 0% and an Activity [14] of 0%.
Work on C=C1CN(C(C)(C)c2cc(Cl)cc(Cl)c2)C(=O)C1(C(=O)OC)c1ccccc1F (centres undefined) yielded an Activity [7] of 99%, an Activity [9] of 98% and an Activity [10] of 99%. For the same compound, the Activity [11] was 80%, the Activity [12] was 65% and the Activity [15] was 95%. It also gave an Activity [16] of 0%, an Activity [18] of 95% and an Activity [19] of 0%. It also gave an Activity [20] of 99%.
COC(=O)C1(c2ccccc2)C(=O)N(C(C)(C)c2cc(Cl)cc(Cl)c2)C=C1C=O (centres undefined) was tested, and the Activity [1] was 87.6%, the Activity [3] was 100% and the Activity [4] was 100%. The Activity [5] was 0%, the Activity [6] was 100% and the Activity [8] was 50.1%. The Activity [13] was 50.1% and the Activity [14] was 87.6%.
COC(=O)C1(c2ccccc2)C(=O)N(C(C)(C)c2cc(Cl)cc(Cl)c2)C=C1COC(C)=O (centres undefined) showed an Activity [1] of 100%, an Activity [3] of 100% and an Activity [4] of 100%. It also gave an Activity [5] of 0.1%, an Activity [6] of 75.1% and an Activity [8] of 0%. For the same compound, the Activity [13] was 0.1% and the Activity [14] was 87.6%.
COC(=O)C1(c2ccccc2)C(=O)N(C(C)(C)c2cnc3ccccc3c2)C=C1C (centres undefined) was tested, and the Activity [1] was 100%, the Activity [3] was 100% and the Activity [4] was 100%. The Activity [5] was 0%, the Activity [6] was 100% and the Activity [8] was 50.1%. For the same compound, the Activity [13] was 0% and the Activity [14] was 87.6%.
With COC(=O)C1(c2ccccc2)C(=O)N(C(C)(C)c2cc(Cl)cc(Cl)c2)C=C1C#N (centres undefined) the Activity [1] was 0%, the Activity [3] was 100% and the Activity [4] was 87.6%. For the same compound, the Activity [5] was 0%, the Activity [6] was 0% and the Activity [8] was 0%. The Activity [13] was 0% and the Activity [14] was 0.1%.
Work on COC(=O)C1(c2ccccc2)C(=O)N(C(C)(C)c2cc(Cl)cc(Cl)c2)C=C1C(F)F (centres undefined) yielded an Activity [1] of 87.6%, an Activity [3] of 100% and an Activity [4] of 87.6%. It also gave an Activity [5] of 0%, an Activity [6] of 0% and an Activity [8] of 0%. It also gave an Activity [13] of 0% and an Activity [14] of 50.1%.
COC(=O)C1(c2ccccc2)C(=O)N(C(C)(C)c2ccc3ccccc3c2)C=C1C (centres undefined) was tested, and the Activity [1] was 100%, the Activity [3] was 100% and the Activity [4] was 87.6%. It also gave an Activity [5] of 0.1%, an Activity [6] of 87.6% and an Activity [8] of 0%. The Activity [13] was 0% and the Activity [14] was 87.6%.
